According to patent US20230111768A1 (Razi University, priority 2021, published 2023):

Tests used:
Type in all cases: cell-based
[1] = test system: A-431 cell line; experiment: MTT assay on A-431 cell line; settings: Homo sapiens, after 24 hours of treatment, epidermoid carcinoma cell line
Procedure: (§1) In this example, anti-cancer activity of benzo[4,5]imidazo[2,1-b]pyrimido[4,5-d][1,3]thiazine-2,4(3H)-dione and benzo[4,5]imidazo[2,1-b][1,3]thiazin-4-one was evaluated on A-431 cell line (an exemplary epidermoid carcinoma cell line), PC-3 cell line (an exemplary classical prostate cancer cell line), PANC-1 cell line (an exemplary pancreas ductal adenocarcinoma cell line)) by conducting an exemplary […] (MTT) assay. Cytotoxic effect of benzo[4,5]imidazo[2,1-b]pyrimido[4,5-d][1,3]thiazine-2,4(3H)-dione and benzo[4,5]imidazo[2,1-b][1,3]thiazin-4-one was also evaluated on Human Dermal Fibroblasts (HDF) cell line (an exemplary normal, human, adult cell line).
(§2) Meanwhile, the A-431, PC-3, and PANC-1 cell lines were tested by MTT assay after being cultured in DMSO with a concentration of about 1% (v/v) and Etoposide (an anti-cancer chemotherapy drug) as negative and positive controls, respectively. […] “IC50” may refer to a concentration of a compound that may inhibit cell growth and proliferation by 50%.

[2] = test system: PANC-1 cell line; experiment: MTT assay on PANC-1 cell line; settings: Homo sapiens, after 24 hours of treatment, pancreas ductal adenocarcinoma cell line
Procedure: as §1, §2

[3] = test system: PC-3 cell line; experiment: MTT assay on PC-3 cell line; settings: Homo sapiens, after 24 hours of treatment, prostate cancer cell line
Procedure: as §1, §2

[4] = test system: Human Dermal Fibroblasts (HDF) cell line; experiment: MTT assay, cytotoxic effect on Human Dermal Fibroblasts (HDF) cell line; settings: after 24 hours of treatment, normal human adult cell line
Procedure: as §1, §2

| IC50 [1] [µM] | IC50 [2] [µM] | IC50 [3] [µM] | SMILES | IC50 [4] [µM] |
| --- | --- | --- | --- | --- |
| 25.3 | 24.6 | 31.9 | Cc1ccc(C2=C3C(=O)N(C)C(=O)N(C)C3n3c(nc4ccccc43)S2)cc1 (centres unmarked) | > 100 |
| 27 | 32.2 | 25.2 | COc1cc([C@@H]2c3cc4c(cc3[C@@H](O[C@@H]3O[C@@H]5CO[C@@H](C)O[C@H]5[C@H](O)[C@H]3O)[C@H]3COC(=O)[C@H]23)OCO4)cc(OC)c1O [Etoposide, reference compound] | > 100 |
